One data set has as its system H1-HeLa cells. Briefly: Cytotoxicity (CC50) in mock-infected H1-HeLa cells, XTT dye reduction. The format is cell-based, human. The method, boiled down:
(§1)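 XTT dye reduction (formazan, 450/650 nm) in H1-HeLa cells, mock-infected, gave CC50.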

Assay in data set [1]: as above
As to conditions: human, H1-HeLa cells; for CC50: line of CVB2; for CC50 at 1 day: line of CVB3. Format: cell-based, human. The essentials:
as §1

A short description of data set [2]: Cytotoxicity (CC50) in uninfected MRC-5 cells, XTT dye reduction. Format: cell-based, human. As to conditions: human, MRC-5 cells, uninfected (mock-infected); line of ECHO-9. As to the method:
Echovirus type 11 (ECHO 11) was purchased from ATCC (Rockville, Md.). Virus stocks were propagated and antiviral assays were performed in MRC-5 cells (ATCC). Cells were grown in minimal essential medium with 10% fetal bovine serum (Life Technologies, Gaithersburg, Md.). The ability of the compounds of this invention to protect cells against ECHO 11 infection was measured by the XTT dye reduction method (Weislow et al., J. Natl. Cancer Inst. (1989), vol. 81, 577-586). MRC-5 cells were infected with ECHO 11 at an m.o.i. of 0.003 or 0.004, respectively, or mock-infected with medium only. Infected or uninfected cells were added at 1×10^4 cells per well and incubated with appropriate concentrations of compound. Four days later, XTT/PMS was added to test plates, and the amount of formazan produced was quantified spectrophotometrically at 450/650 nm. […] The therapeutic index (TI) was calculated by dividing the CC50 by the EC50. Activity of the compounds against enterovirus type 70 (EV 70) may be measured by the same assay as described above in this section. Enterovirus type 70 (EV 70) may be obtained from the American Type Culture Collection ATCC (Rockville, Md.).

The test system of the next data set is coxsackievirus B5 (CVB5). Put plainly: Anticoxsackieviral cell culture assay (EC50), CVB5. Format: cell-based. As to conditions: Enterovirus B.
For the next data set, the system named is echovirus 9 (ECHO-9). Briefly: Anti-echoviral cell culture assay (EC50), ECHO-9. Conditions: Enterovirus B. The format is cell-based.
Data set [3] has as its system Coxsackievirus type A-21 (CAV-21). Put plainly: Anticoxsackieviral cell culture assay (XTT, EC50), CAV-21. As to conditions: Coxsackievirus. Format: cell-based, coxsackievirus A-21 in H1-HeLa cells. As to the method: Anticoxsackieviral Cell Culture Assay:
Coxsackievirus types A-21 (CAV-21) and B3 (CVB3) were purchased from American Type Culture Collection (ATCC, Rockville, Md.). Virus stocks were propagated and antiviral assays were performed in H1-HeLa cells (ATCC). Cells were grown in minimal essential medium with 10% fetal bovine serum (Life Technologies, Gaithersburg, Md.). The ability of the compounds of this invention to protect cells against either CAV-21 or CVB3 infection was measured by the XTT dye reduction method. This method is described in Weislow et al., J. Natl. Cancer Inst. (1989), vol. 81, 577-586. H1-HeLa cells were infected with CAV-21 or CVB3 at a multiplicity of infection (m.o.i.) of 0.025 or 0.075, respectively, or mock-infected with medium only. H1-HeLa cells were plated at 4×10^4 cells per well in a 96-well plate and incubated with appropriate concentrations of the test compound. One day (CVB3) or two days (CAV-21) later, XTT/PMS was added to test plates and the amount of formazan produced was quantified spectrophotometrically at 450/650 nm. […] The therapeutic index (TI) was calculated by dividing the CC50 by the EC50.

The mark [4] stands for this setting: uninfected (mock-infected), line of CAV-21.

As for `Cc1cc(C(=O)Nc2cccn([C@@H](Cc3ccc(F)c(F)c3)C(=O)N[C@H](/C=C/C(=O)OC(C)C)C[C@@H]3CCNC3=O)c2=O)no1` [Compound 48, trans-(2′S,3″″″S,4S)-4-[3′-(3″,4″-Difluorophenyl)-2′-(3′″-{[1″″-(5′″″-methylisoxazol-3′″″-yl)methanoyl]amino}-2″″-oxo-2″″H-pyridin-1″″-yl)propanoylamino]-5-(2″″″-oxopyrrolidin-3″″″-yl)pent-2-enoic Acid Isopropyl Ester], the half-maximal cytotoxic concentration (CC50) in the data set on H1-HeLa cells (line of CVB5), in the data set with H1-HeLa cells (line of HRV-1A), in the data set on H1-HeLa cells (line of HRV-2), in the data set on H1-HeLa cells (line of HRV-3), in the data set with H1-HeLa cells (line of HRV-9) and in the data set on H1-HeLa cells (line of HRV-10) was greater than 10 µM each time. The CC50 in the data set with H1-HeLa cells (line of HRV-11), in the data set on H1-HeLa cells (line of HRV-13), in the data set with H1-HeLa cells (line of HRV-16), with H1-HeLa cells (line of HRV-19), in the data set with H1-HeLa cells (line of HRV-23) and with H1-HeLa cells (line of HRV-25) was greater than 10 µM throughout. For the same compound, the half-maximal cytotoxic concentration (CC50) (in the data set on H1-HeLa cells (line of HRV-39); in the data set on H1-HeLa cells (line of HRV-78); in the data set on H1-HeLa cells (line of HRV-Hanks); in data set [1] (uninfected (mock-infected))) was greater than 10 µM each time. In addition, the CC50 at 2 days in data set [1] (mock-infected, line of HRV-14) is greater than 10 µM; in data set [1] (setting [4]), greater than 10 µM. This compound also came in with a 50% cytotoxic concentration (CC50) at 1 day in data set [1] (uninfected (mock-infected)) greater than 10 µM. Moreover, in data set [2], the cytotoxic concentration (CC50) at 4 days was greater than 10 µM. The EC50 with coxsackievirus B5 (CVB5) is 0.178 µM; in the data set on echovirus 9 (ECHO-9), 0.057 µM; in data set [3], 1.12 µM.

Regarding `C#CC[C@@H](C(=O)N[C@H](/C=C/C(=O)OC1CCC1)C[C@@H]1CCNC1=O)n1cccc(NC(=O)c2cc(C)on2)c1=O` [Compound 53, trans-(2′S,3′″″S,4S)-4-[2′-(3″-{[1′″-(5″″-Methylisoxazol-3″″-yl)methanoyl]amino}-2′″-oxo-2′″H-pyridin-1′″-yl)pent-4″-ynoylamino]-5-(2′″″-oxopyrrolidin-3′″″-yl)pent-2-enoic Acid Cyclobutyl Ester], the cytotoxic concentration (CC50) in the data set on H1-HeLa cells (line of CVB5), with H1-HeLa cells (line of HRV-1A), in the data set on H1-HeLa cells (line of HRV-2), in the data set on H1-HeLa cells (line of HRV-3), with H1-HeLa cells (line of HRV-9) and in the data set on H1-HeLa cells (line of HRV-10) was greater than 10 µM each time. The half-maximal cytotoxic concentration (CC50) in the data set with H1-HeLa cells (line of HRV-11), with H1-HeLa cells (line of HRV-13), in the data set on H1-HeLa cells (line of HRV-16), in the data set with H1-HeLa cells (line of HRV-19), in the data set with H1-HeLa cells (line of HRV-23) and in the data set with H1-HeLa cells (line of HRV-25) was greater than 10 µM in each case. Also, the CC50 (with H1-HeLa cells (line of HRV-39); in the data set with H1-HeLa cells (line of HRV-78); in the data set on H1-HeLa cells (line of HRV-Hanks); in data set [1] (uninfected (mock-infected))) was greater than 10 µM throughout. Further, the 50% cytotoxic concentration (CC50) at 2 days in data set [1] (mock-infected, line of HRV-14) was greater than 10 µM; in data set [1] (setting [4]), greater than 10 µM. Further, in data set [1] (uninfected (mock-infected)), the cytotoxic concentration (CC50) at 1 day was greater than 10 µM. For the same compound, in data set [2], the CC50 at 4 days is greater than 10 µM. Further, the EC50 in the data set with coxsackievirus B5 (CVB5) worked out at 0.157 µM; in the data set with echovirus 9 (ECHO-9), 0.026 µM; in data set [3] it was 0.476 µM.

Values taken from patent publication US6514997B2, “Antipicornaviral compounds and compositions, their pharmaceutical uses, and materials for their synthesis” (Agouron Pharmaceuticals, Inc., priority 1999, dated 2003).
